Key:
Assay in all cases: radiometric citrulline NOS assay
Format in all cases: biochemical
[1] = target: T1, Physarum NOS form B (clone B+; physnosb) (Badhamia polycephala, UniProt A6XKZ6)
[2] = target: T2, Physarum NOS form A (clone A1; physnosa) (Badhamia polycephala, UniProt A6XKZ4)
[3] = target: T1, Physarum NOS form B (clone B+; physnosb); remark: listed apart in the source
[4] = target: T2, Physarum NOS form A (clone A1; physnosa); remark: listed apart in the source

Row | SMILES | EC50 [1] [µM] | EC50 [2] [µM] | IC50 [3] [µM] | IC50 [4] [µM]
1 | Cc1cc2nc3c(=O)[nH]c(=O)nc-3n(C[C@H](O)[C@H](O)[C@H](O)COP(=O)(O)OP(=O)(O)OC[C@H]3O[C@@H](n4cnc5c(N)ncnc54)[C@H](O)[C@@H]3O)c2cc1C [FAD] | 2.1 ± 1.6 | 3.9 ± 1.6 | – | –
2 | Cc1cc2nc3c(=O)[nH]c(=O)nc-3n(C[C@H](O)[C@H](O)[C@H](O)COP(=O)(O)O)c2cc1C [FMN] | 0.2 ± 0.2 | 1.7 ± 0.6 | – | –
3 | C[C@H](O)[C@H](O)[C@H]1CNc2nc(N)[nH]c(=O)c2N1 [H4-bip, 6R-5,6,7,8-tetrahydro-L-biopterin] | 0.7 ± 0.1 | 7.9 ± 1.2 | – | –
4 | N=C(NCCC[C@H](N)C(=O)O)N[N+](=O)[O-] [L-NNA, N^ω-nitro-L-arginine] | – | – | 39.8 ± 20.3 | 25.7 ± 10.7
5 | NC(=O)C1=CN([C@@H]2O[C@H](COP(=O)(O)OP(=O)(O)OC[C@H]3O[C@@H](n4cnc5c(N)ncnc54)[C@H](OP(=O)(O)O)[C@@H]3O)[C@@H](O)[C@H]2O)C=CC1 [NADPH] | 60.3 ± 13.8 | 57.2 ± 6.5 | – | –

Second part, the compound after the results:

Row | EC50 [1] [µM] | EC50 [2] [µM] | IC50 [3] [µM] | IC50 [4] [µM] | SMILES
6 | – | – | 76.7 ± 4.3 | 81.3 ± 7.8 | CC(=N)NCCCC[C@H](N)C(=O)O [L-NIL, L-N6(1-iminoethyl)-lysine]
7 | – | – | 44.3 ± 19.2 | 45.2 ± 23.5 | CNC(=N)NCCC[C@H](N)C(=O)O [L-NMMA, N^ω-methyl-L-arginine]

Source: publication PMC2677215 (Biochemical Journal, 2009)
